Assay results as given in patent publication US12052991B2, “Substituted pyridinyloxybenzenes and salts thereof and use thereof as herbicidal agents” (Bayer Aktiengesellschaft, priority 2018, dated 2024).

Assays:
Assay type in all cases: in vivo
Lolium rigidum (LOLRI) [1] = assay: Herbicidal post-emergence action (Table B2); details: 1280 g/ha; rated visually after about 3 weeks; 100% = plants have died, 0% = like control plants
Method: (§1) Seeds of mono- and dicotyledonous weed plants were placed in plastic pots in sandy loam soil (doubly sown with in each case one species of mono- or dicotyledonous weed plants per pot), covered with soil and cultivated in a greenhouse under controlled growth conditions. 2 to 3 weeks after sowing, the test plants were treated at the one-leaf stage. The compounds of the invention, formulated in the form of wettable powders (WP) or as emulsion concentrates (EC), were applied onto the green parts of the plants as aqueous suspension or emulsion with addition of 0.5% additive at a water application rate of 600 liters per hectare (converted). After the test plants had been kept in the greenhouse under optimum growth conditions for about 3 weeks, the activity of the preparations was rated visually in comparison to untreated controls. For example, 100% activity=the plants have died, 0% activity=like control plants. Tables B1 to B12 below show the effects of selected compounds of the general formula (I) according to Table 1 on various harmful plants and an application rate corresponding to 1280 or 320 g/ha, which were obtained by the experimental procedure mentioned above.

Setaria viridis (SETVI) [2] = assay: Herbicidal post-emergence action (Table B4); details: 1280 g/ha; rated visually after about 3 weeks; 100% = plants have died, 0% = like control plants
Method: as §1

[3] = test system: Abutilon theophrasti (ABUTH); assay: Herbicidal post-emergence action (Table B5); details: rated visually after about 3 weeks, 100% = plants have died, 0% = like control plants
Outline: (§2)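 Greenhouse pot-grown weeds in sandy loam, sprayed at the one-leaf stage (2–3 weeks post-sowing) with WP or EC formulations plus 0.5% additive at 600 l/ha water, at 1280 or 320 g/ha. Visual % activity versus untreated controls rated about 3 weeks later (100% = dead).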

[4] = test system: Amaranthus retroflexus (AMARE); assay: Herbicidal post-emergence action (Table B6); details: visual rating about 3 weeks after treatment, 100% = plants have died, 0% = like control plants
Outline: as §2

Stellaria media (STEME) [5] = assay: Herbicidal post-emergence action (Table B8); details: visual rating about 3 weeks after treatment, 100% = plants have died, 0% = like control plants
Outline: as §2

[6] = test system: Alopecurus myosuroides (ALOMY); assay: Herbicidal post-emergence action (Table B9); details: rated visually after about 3 weeks, 100% = plants have died, 0% = like control plants
Outline: as §2

[7] = test system: Digitaria sanguinalis (DIGSA); assay: Herbicidal post-emergence action (Table B10); details: visual rating about 3 weeks after treatment, 100% = plants have died, 0% = like control plants
Outline: as §2

Bassia scoparia (KCHSC) [8] = assay: Herbicidal post-emergence action (Table B11); details: visual rating about 3 weeks after treatment, 100% = plants have died, 0% = like control plants
Outline: as §2

Veronica persica (VERPE) [9] = assay: Herbicidal post-emergence action (Table B12); details: visual rating about 3 weeks after treatment, 100% = plants have died, 0% = like control plants
Outline: as §2

[10] = test system: Echinochloa crus-galli (ECHCG); assay: Herbicidal pre-emergence action, test C (Table C1); details: visual scoring after about 3 weeks, 100% = plants have died, 0% = like control plants
Outline: (§3)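 Compounds formulated as WP or EC were sprayed onto soil covering freshly sown weed seeds at 600 L/ha water with 0.5% additive, at 1280 or 320 g/ha. Pots were kept in a greenhouse. After about 3 weeks, damage was scored visually as % versus untreated controls (100% = plants dead).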

Lolium rigidum (LOLRI) [11] = assay: Herbicidal pre-emergence action, test C (Table C2); details: dosage 1280 g/ha; visual scoring after about 3 weeks; 100% = plants have died, 0% = like control plants
Text: (§4) Seeds of mono- and dicotyledonous weed plants were placed in plastic pots in sandy loam soil (doubly sown with one species each of mono- or dicotyledonous weed plants per pot) and covered with soil. The compounds of the invention, formulated in the form of wettable powders (WP) or as emulsion concentrates (EC), were then applied onto the surface of the covering soil as aqueous suspension or emulsion with addition of 0.5% additive at a water application rate of 600 liters per hectare (converted). After the treatment, the pots were placed in a greenhouse and kept under good growth conditions for the test plants. After about 3 weeks, the effect of the preparations was scored visually in comparison with untreated controls as percentages. For example, 100% activity=the plants have died, 0% activity=like control plants. Tables C1 to C12 below show the effects of selected compounds of the general formula (I) according to Table 1 on various harmful plants and an application rate corresponding to 1280 or 320 g/ha, which were obtained by the experimental procedure mentioned above.

Poa annua (POAAN) = assay: Herbicidal pre-emergence action, test C (Table C3); details: visual scoring after about 3 weeks, 100% = plants have died, 0% = like control plants
Outline: as §3

Setaria viridis (SETVI) [12] = assay: Herbicidal pre-emergence action, test C (Table C4); details: visual scoring after about 3 weeks, 100% = plants have died, 0% = like control plants
Outline: as §3

[13] = test system: Abutilon theophrasti (ABUTH); assay: Herbicidal pre-emergence action, test C (Table C5); details: visual scoring after about 3 weeks, 100% = plants have died, 0% = like control plants
Outline: as §3

[14] = test system: Amaranthus retroflexus (AMARE); assay: Herbicidal pre-emergence action, test C (Table C6); details: visual scoring after about 3 weeks, 100% = plants have died, 0% = like control plants
Outline: as §3

[15] = test system: Matricaria inodora (MATIN); assay: Herbicidal pre-emergence action, test C (Table C7); details: visual scoring after about 3 weeks, 100% = plants have died, 0% = like control plants
Outline: as §3

Stellaria media (STEME) [16] = assay: Herbicidal pre-emergence action, test C (Table C8); details: visual scoring after about 3 weeks, 100% = plants have died, 0% = like control plants
Outline: as §3

[17] = test system: Alopecurus myosuroides (ALOMY); assay: Herbicidal pre-emergence action, test C (Table C9); details: visual scoring after about 3 weeks, 100% = plants have died, 0% = like control plants
Outline: as §3

[18] = test system: Digitaria sanguinalis (DIGSA); assay: Herbicidal pre-emergence action, test C (Table C10); details: visual scoring after about 3 weeks, 100% = plants have died, 0% = like control plants
Outline: as §3

Bassia scoparia (KCHSC) [19] = assay: Herbicidal pre-emergence action, test C (Table C11); details: visual scoring vs untreated controls
Text: as §4

Veronica persica (VERPE) [20] = assay: Herbicidal pre-emergence action, test C (Table C12); details: visual scoring vs untreated controls
Outline: as §3

[21] = test system: harmful plants ABUTH, AMARE, ECHCG, LOLRI, MATIN, POAAN, SETVI, STEME, ALOMY, DIGSA, KCHSC and VERPE; assay: Herbicidal post-emergence action, summary of Tables B1-B12; details: application rate of 1280 or 320 g of active ingredient per hectare; summary in words
Outline: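 Greenhouse weeds in sandy loam treated post-emergence at the one-leaf stage, 2–3 weeks after sowing, with WP or EC formulations sprayed with 0.5% additive at 600 L/ha water, 1280 or 320 g/ha. Damage rated visually after about 3 weeks versus untreated controls (0% = like control, 100% = dead).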

[22] = test system: harmful plants ABUTH, AMARE, ECHCG, LOLRI, MATIN, POAAN, SETVI, STEME, ALOMY, DIGSA, KCHSC and VERPE; assay: Herbicidal pre-emergence action (test C), summary of Tables C1-C12; details: application rate of 1280 or 320 g of active ingredient per hectare; summary in words
Outline: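 Pre-emergence pot test in sandy loam: WP or EC formulations were sprayed onto the covering soil with 0.5% additive at 600 L/ha water, at 1280 or 320 g/ha. Plants were kept in the greenhouse, and activity was rated visually about 3 weeks later as % versus untreated controls (100% = dead).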

SMILES: Fc1cc(Cl)cnc1Oc1ccccc1-c1cncc(C(F)(F)F)c1 [Example 1-72]
- Post-emergence action against Lolium rigidum (LOLRI) (Lolium rigidum (LOLRI) [1]): 100%
- Post-emergence action against Setaria viridis (SETVI) (Setaria viridis (SETVI) [2]): 90%
- Post-emergence action against Abutilon theophrasti (ABUTH) ([3]; 320 g/ha): 100%
- Post-emergence action against Abutilon theophrasti (ABUTH) ([3]; 1280 g/ha): 100%
- Post-emergence action against Amaranthus retroflexus (AMARE) ([4]; dosage 320 g/ha): 100%
- Post-emergence action against Amaranthus retroflexus (AMARE) ([4]; dosage 1280 g/ha): 100%
- Post-emergence action against Stellaria media (STEME) (Stellaria media (STEME) [5]; dosage 320 g/ha): 100%
- Post-emergence action against Stellaria media (STEME) (Stellaria media (STEME) [5]; dosage 1280 g/ha): 100%
- Post-emergence action against Alopecurus myosuroides (ALOMY) ([6]; 320 g/ha): 100%
- Post-emergence action against Alopecurus myosuroides (ALOMY) ([6]; 1280 g/ha): 100%
- Post-emergence action against Digitaria sanguinalis (DIGSA) ([7]; dosage 320 g/ha): 90%
- Post-emergence action against Digitaria sanguinalis (DIGSA) ([7]; dosage 1280 g/ha): 100%
- Post-emergence action against Bassia scoparia (KCHSC) (Bassia scoparia (KCHSC) [8]; dosage 320 g/ha): 100%
- Post-emergence action against Bassia scoparia (KCHSC) (Bassia scoparia (KCHSC) [8]; dosage 1280 g/ha): 100%
- Post-emergence action against Veronica persica (VERPE) (Veronica persica (VERPE) [9]; dosage 320 g/ha): 100%
- Post-emergence action against Veronica persica (VERPE) (Veronica persica (VERPE) [9]; dosage 1280 g/ha): 100%
- Pre-emergence action against Echinochloa crus-galli (ECHCG) ([10]; dosage 320 g/ha): 100%
- Pre-emergence action against Echinochloa crus-galli (ECHCG) ([10]; dosage 1280 g/ha): 100%
- Pre-emergence action against Lolium rigidum (LOLRI) (Lolium rigidum (LOLRI) [11]): 100%
- Pre-emergence action against Poa annua (POAAN) (Poa annua (POAAN); dosage 320 g/ha): 100%
- Pre-emergence action against Poa annua (POAAN) (Poa annua (POAAN); dosage 1280 g/ha): 100%
- Pre-emergence action against Setaria viridis (SETVI) (Setaria viridis (SETVI) [12]; dosage 320 g/ha): 100%
- Pre-emergence action against Setaria viridis (SETVI) (Setaria viridis (SETVI) [12]; dosage 1280 g/ha): 100%
- Pre-emergence action against Abutilon theophrasti (ABUTH) ([13]; dosage 320 g/ha): 100%
- Pre-emergence action against Abutilon theophrasti (ABUTH) ([13]; dosage 1280 g/ha): 100%
- Pre-emergence action against Amaranthus retroflexus (AMARE) ([14]; dosage 320 g/ha): 100%
- Pre-emergence action against Amaranthus retroflexus (AMARE) ([14]; dosage 1280 g/ha): 100%
- Pre-emergence action against Matricaria inodora (MATIN) ([15]; dosage 320 g/ha): 90%
- Pre-emergence action against Matricaria inodora (MATIN) ([15]; dosage 1280 g/ha): 100%
- Pre-emergence action against Stellaria media (STEME) (Stellaria media (STEME) [16]; dosage 320 g/ha): 90%
- Pre-emergence action against Stellaria media (STEME) (Stellaria media (STEME) [16]; dosage 1280 g/ha): 100%
- Pre-emergence action against Alopecurus myosuroides (ALOMY) ([17]; dosage 320 g/ha): 100%
- Pre-emergence action against Alopecurus myosuroides (ALOMY) ([17]; dosage 1280 g/ha): 100%
- Pre-emergence action against Digitaria sanguinalis (DIGSA) ([18]; dosage 320 g/ha): 100%
- Pre-emergence action against Digitaria sanguinalis (DIGSA) ([18]; dosage 1280 g/ha): 100%
- Pre-emergence action against Bassia scoparia (KCHSC) (Bassia scoparia (KCHSC) [19]; dosage 320 g/ha): 100%
- Pre-emergence action against Bassia scoparia (KCHSC) (Bassia scoparia (KCHSC) [19]; dosage 1280 g/ha): 100%
- Pre-emergence action against Veronica persica (VERPE) (Veronica persica (VERPE) [20]; dosage 320 g/ha): 100%
- Pre-emergence action against Veronica persica (VERPE) (Veronica persica (VERPE) [20]; dosage 1280 g/ha): 100%
- herbicidal activity against the harmful plants of Tables B1-B12 in post-emergence treatment [21]: very good herbicidal activity
- herbicidal activity against the harmful plants of Tables C1-C12 in pre-emergence treatment [22]: very good herbicidal activity
